According to PMC8156604, “Development of Phosphodiesterase–Protein-Kinase Complexes as Novel Targets for Discovery of Inhibitors with Enhanced Specificity” (International Journal of Molecular Sciences, 2021):

Key:
PDE5–PKG complex = target: T1, PDE5–PKG complex (Homo sapiens, UniProt O76074); details: PDE5 with cGMP 100 µM, added to 2fg-PKG
T1 construct: gene PDE5A

RegA–RD complex = target: T2, RegA–RD complex (Dictyostelium discoideum, UniProt P05987+Q23917); details: cGMP 250 µM added to preformed 2fc-RD–RegA complex
T2 construct: gene pkaR
T2 sequence (P05987 1-327): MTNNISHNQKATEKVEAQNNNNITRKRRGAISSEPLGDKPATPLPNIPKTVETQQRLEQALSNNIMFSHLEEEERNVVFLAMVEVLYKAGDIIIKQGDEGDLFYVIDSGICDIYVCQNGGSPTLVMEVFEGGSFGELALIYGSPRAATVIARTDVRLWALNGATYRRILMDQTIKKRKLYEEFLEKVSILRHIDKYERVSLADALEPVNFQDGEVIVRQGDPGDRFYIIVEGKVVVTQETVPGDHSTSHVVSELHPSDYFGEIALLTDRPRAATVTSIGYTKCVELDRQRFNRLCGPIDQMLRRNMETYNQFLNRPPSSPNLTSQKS
T2 sequence (Q23917 1-793): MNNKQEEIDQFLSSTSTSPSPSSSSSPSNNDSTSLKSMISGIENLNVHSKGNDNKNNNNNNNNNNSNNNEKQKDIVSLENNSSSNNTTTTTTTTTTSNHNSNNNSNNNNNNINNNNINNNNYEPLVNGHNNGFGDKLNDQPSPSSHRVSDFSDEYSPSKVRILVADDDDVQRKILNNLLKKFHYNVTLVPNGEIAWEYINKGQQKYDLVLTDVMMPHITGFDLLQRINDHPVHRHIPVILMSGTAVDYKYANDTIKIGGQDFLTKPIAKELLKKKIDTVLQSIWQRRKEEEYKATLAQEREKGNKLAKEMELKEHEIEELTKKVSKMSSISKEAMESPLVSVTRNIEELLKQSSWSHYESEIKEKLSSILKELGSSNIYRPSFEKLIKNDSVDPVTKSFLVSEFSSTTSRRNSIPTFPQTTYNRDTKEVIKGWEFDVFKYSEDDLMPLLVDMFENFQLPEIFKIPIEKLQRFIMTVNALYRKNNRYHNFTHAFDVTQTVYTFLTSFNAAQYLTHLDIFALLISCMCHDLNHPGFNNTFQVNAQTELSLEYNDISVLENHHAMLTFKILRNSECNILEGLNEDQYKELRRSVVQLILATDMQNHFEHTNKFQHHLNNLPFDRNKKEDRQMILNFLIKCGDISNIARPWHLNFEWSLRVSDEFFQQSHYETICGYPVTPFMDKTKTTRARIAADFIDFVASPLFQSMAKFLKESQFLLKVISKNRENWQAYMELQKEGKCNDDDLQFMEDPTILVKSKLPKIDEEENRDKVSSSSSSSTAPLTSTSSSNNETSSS

## Nc1nc2c(ncn2[C@@H]2O[C@@H]3COP(=O)(O)O[C@H]3[C@H]2O)c(=O)[nH]1 [cGMP]
PDE5–PKG complex
  fluorescence polarization, 2fluo-cGMP-bound PKG probe: suggestive of processive hydrolysis of cGMP by PDE5–PKG composite site
RegA–RD complex
  fluorescence polarization, displacement of 2fluo-cAMP: addition of cGMP (lilac plot) resulted in only a partial decrease in FP
